Assay results: ChEMBL document CHEMBL3286312, “Synthesis and structure-activity relationships of guaiane-type sesquiterpene lactone derivatives with respect to inhibiting NO production in lipopolysaccharide-induced RAW 264.7 macrophages” (Eur J Med Chem, 2014)

Tests used:
[1] = tested on: RAW264.7; test: Antiinflammatory activity against mouse RAW264.7 cells assessed as inhibition of LPS-induced NO production at 25 uM after 18 hrs by Griess method relative to control; format: functional; conditions: RAW264.7, 18 h
[2] = Cytotoxicity against mouse RAW264.7 cells assessed as cell survival rate up to 25 uM after 18 hrs by MTT assay relative to control; format: cell-based; conditions: read-out: Survival
[3] = tested on: RAW264.7; test: Antiinflammatory activity against mouse RAW264.7 cells assessed as inhibition of LPS-induced NO production at after 18 hrs by Griess method relative to control; format: functional, cell-based; conditions: RAW264.7, 18 h
[4] = tested on: RAW264.7; test: Cytotoxicity against mouse RAW264.7 cells assessed as reduction in cell survival rate after 18 hrs by MTT assay relative to control; format: cell-based; conditions: RAW264.7, 18 h

With `CC1=C2C(C[C@@H]1OC(=O)c1ccc([N+](=O)[O-])cc1)[C@](C)(O)CC[C@H]1[C@H](C)C(=O)O[C@H]21` (stereo partly specified) the inhibition at 25 µM [1] was 1.8% and the viability at 18 h [2] was 100%.

`N=C(N)NN` [PIMAGEDINE] gave an inhibition at 25 µM [1] of 83.8%, an IC50 [3] of 8.68 µM and a viability at 18 h [2] of 100%.

In the case of `CC1=C2C(C[C@@H]1OC(=O)c1ccc(F)cc1)[C@](C)(O)CC[C@H]1[C@H](C)C(=O)O[C@H]21` (stereo partly specified), the inhibition at 25 µM [1] is reported as 19.4% and the viability at 18 h [2] is reported as 100%.

In the case of `CSc1ccc(/C=C/C(=O)O[C@H]2CC3C(=C2C)[C@H]2OC(=O)[C@@H](C)[C@@H]2CC[C@@]3(C)O)cc1` (stereo partly specified), the IC50 [4] is reported as > 100 µM, the inhibition at 25 µM [1] is reported as 67.4% and the IC50 [3] is reported as 27.2 µM. The viability at 18 h [2] was 100%.

`CC1=C2C(C[C@@H]1OC(=O)/C=C/c1ccc(Cl)cc1)[C@](C)(O)CC[C@H]1[C@H](C)C(=O)O[C@H]21` (stereo partly specified) gave an IC50 [4] of 59.2 µM, an inhibition at 25 µM [1] of 82% and an IC50 [3] of 22.3 µM. It also gave a viability at 18 h [2] of 100%.

For `CC1=C2C(C[C@@H]1OC(=O)c1ccco1)[C@](C)(O)CC[C@H]1[C@H](C)C(=O)O[C@H]21` (stereo partly specified), the inhibition at 25 µM [1] was 2.2% and the viability at 18 h [2] was 100%.

For `CCc1ccc(C(=O)O[C@H]2CC3C(=C2C)[C@H]2OC(=O)[C@@H](C)[C@@H]2CC[C@@]3(C)O)cc1` (stereo partly specified), the inhibition at 25 µM [1] was 26.3% and the viability at 18 h [2] was 85.2%.

Compound `CCOc1ccc(/C=C/C(=O)O[C@H]2CC3C(=C2C)[C@H]2OC(=O)[C@@H](C)[C@@H]2CC[C@@]3(C)O)cc1` (stereo partly specified) has an inhibition at 25 µM [1] of 26.9% and a viability at 18 h [2] of 35.6%.

For `CC1=C2C(C[C@@H]1OC(=O)/C=C/c1ccc([N+](=O)[O-])cc1)[C@](C)(O)CC[C@H]1[C@H](C)C(=O)O[C@H]21` (stereo partly specified), the inhibition at 25 µM [1] was 45% and the viability at 18 h [2] was 92.5%.

With `CC1=C2C(C[C@@H]1OC(=O)/C=C/c1ccc(Br)cc1)[C@](C)(O)CC[C@H]1[C@H](C)C(=O)O[C@H]21` (stereo partly specified) the IC50 [4] was 60.2 µM, the inhibition at 25 µM [1] was 85.2% and the IC50 [3] was 18.3 µM. The viability at 18 h [2] was 97.8%.

Work on `CCCOc1ccc(/C=C/C(=O)O[C@H]2CC3C(=C2C)[C@H]2OC(=O)[C@@H](C)[C@@H]2CC[C@@]3(C)O)cc1` (stereo partly specified) yielded an inhibition at 25 µM [1] of 19.3% and a viability at 18 h [2] of 43.1%.

`CC1=C2C(C[C@@H]1OC(=O)c1ccc(Cl)cc1)[C@](C)(O)CC[C@H]1[C@H](C)C(=O)O[C@H]21` (stereo partly specified) showed an inhibition at 25 µM [1] of 19.6% and a viability at 18 h [2] of 100%.

Work on `CC1=C2C(C[C@@H]1OC(=O)c1cccs1)[C@](C)(O)CC[C@H]1[C@H](C)C(=O)O[C@H]21` (stereo partly specified) yielded an inhibition at 25 µM [1] of 0% and a viability at 18 h [2] of 100%.

Compound `CC1=C2C(C[C@@H]1OC(=O)c1ccsc1)[C@](C)(O)CC[C@H]1[C@H](C)C(=O)O[C@H]21` (stereo partly specified) has an inhibition at 25 µM [1] of 6.7% and a viability at 18 h [2] of 93.9%.

`CC1=C2C(C[C@@H]1OC(=O)c1ccc(C#N)cc1)[C@](C)(O)CC[C@H]1[C@H](C)C(=O)O[C@H]21` (stereo partly specified) gave an inhibition at 25 µM [1] of 6.6% and a viability at 18 h [2] of 100%.

Compound `CC1=C2C(C[C@@H]1OC(=O)c1ccc3ncccc3c1)[C@](C)(O)CC[C@H]1[C@H](C)C(=O)O[C@H]21` (stereo partly specified) has an inhibition at 25 µM [1] of 23.2% and a viability at 18 h [2] of 100%.

For `CC(=O)O[C@]1(C)CC[C@H]2[C@H](C)C(=O)O[C@@H]2C2=C(C)[C@@H](O)CC21` (stereo partly specified), the inhibition at 25 µM [1] was 0% and the viability at 18 h [2] was 100%.

Work on `CC1=C2C(C[C@@H]1OC(=O)c1ccc(C(C)C)cc1)[C@](C)(O)CC[C@H]1[C@H](C)C(=O)O[C@H]21` (stereo partly specified) yielded an inhibition at 25 µM [1] of 53.3% and a viability at 18 h [2] of 74.7%.

Work on `CC1=C2C(C[C@@H]1OC(=O)/C=C/c1ccc(C#N)cc1)[C@](C)(O)CC[C@H]1[C@H](C)C(=O)O[C@H]21` (stereo partly specified) yielded an inhibition at 25 µM [1] of 31.4% and a viability at 18 h [2] of 100%.

With `CC1=C2C(C[C@@H]1OC(=O)/C=C/c1ccc(C)cc1)[C@](C)(O)CC[C@H]1[C@H](C)C(=O)O[C@H]21` (stereo partly specified) the IC50 [4] was 76.5 µM, the inhibition at 25 µM [1] was 58.8% and the IC50 [3] was 29 µM. For the same compound, the viability at 18 h [2] was 100%.

For `CC1=C2C(C[C@@H]1OC(=O)c1cccc3ccccc13)[C@](C)(O)CC[C@H]1[C@H](C)C(=O)O[C@H]21` (stereo partly specified), the IC50 [4] was 7.52 µM, the inhibition at 25 µM [1] was 79.6% and the IC50 [3] was 6.98 µM. For the same compound, the viability at 18 h [2] was 67.4%.

Work on `CC1=C2C(C[C@@H]1OC(=O)c1ccc(Br)cc1)[C@](C)(O)CC[C@H]1[C@H](C)C(=O)O[C@H]21` (stereo partly specified) yielded an inhibition at 25 µM [1] of 28.1% and a viability at 18 h [2] of 98.1%.

`COc1ccc(/C=C/C(=O)O[C@H]2CC3C(=C2C)[C@H]2OC(=O)[C@@H](C)[C@@H]2CC[C@@]3(C)O)cc1` (stereo partly specified) showed an inhibition at 25 µM [1] of 19.3% and a viability at 18 h [2] of 100%.

Compound `CC1=C2C(C[C@@H]1OC(=O)c1ccncc1)[C@](C)(O)CC[C@H]1[C@H](C)C(=O)O[C@H]21` (stereo partly specified) has an inhibition at 25 µM [1] of 2% and a viability at 18 h [2] of 100%.

For `CC1=C2C(C[C@@H]1OC(=O)/C=C/c1ccc(N(C)C)cc1)[C@](C)(O)CC[C@H]1[C@H](C)C(=O)O[C@H]21` (stereo partly specified), the inhibition at 25 µM [1] was 44.5% and the viability at 18 h [2] was 100%.

Compound `CC1=C2C(C[C@@H]1OC(=O)c1ccccn1)[C@](C)(O)CC[C@H]1[C@H](C)C(=O)O[C@H]21` (stereo partly specified) has an inhibition at 25 µM [1] of 0% and a viability at 18 h [2] of 100%.

In the case of `COc1ccc(C(=O)O[C@H]2CC3C(=C2C)[C@H]2OC(=O)[C@@H](C)[C@@H]2CC[C@@]3(C)O)cc1` (stereo partly specified), the inhibition at 25 µM [1] is reported as 6.6% and the viability at 18 h [2] is reported as 98%.

`CC1=C2C(C[C@@H]1OC(=O)c1ccc(OC(F)(F)F)cc1)[C@](C)(O)CC[C@H]1[C@H](C)C(=O)O[C@H]21` (stereo partly specified) gave an inhibition at 25 µM [1] of 30.6% and a viability at 18 h [2] of 97.5%.

`CC1=C2C(C[C@@H]1OC(=O)/C=C/c1ccc(F)cc1)[C@](C)(O)CC[C@H]1[C@H](C)C(=O)O[C@H]21` (stereo partly specified) showed an inhibition at 25 µM [1] of 31.6% and a viability at 18 h [2] of 100%.

Work on `CC1=C2C(C[C@@H]1OC(=O)c1ccc(C(C)(C)C)cc1)[C@](C)(O)CC[C@H]1[C@H](C)C(=O)O[C@H]21` (stereo partly specified) yielded an IC50 [4] of 29.1 µM, an inhibition at 25 µM [1] of 76.3% and an IC50 [3] of 14.8 µM. For the same compound, the viability at 18 h [2] was 52.1%.

In the case of `CC1=C2C(CC1=O)[C@](C)(O)CC[C@H]1[C@H](C)C(=O)O[C@H]21` (stereo partly specified), the inhibition at 25 µM [1] is reported as 0% and the viability at 18 h [2] is reported as 100%.

`CC1=C2C(C[C@@H]1OC(=O)c1ccc(I)cc1)[C@](C)(O)CC[C@H]1[C@H](C)C(=O)O[C@H]21` (stereo partly specified) showed an inhibition at 25 µM [1] of 46.5% and a viability at 18 h [2] of 93%.

For `CCCCCc1ccc(C(=O)O[C@H]2CC3C(=C2C)[C@H]2OC(=O)[C@@H](C)[C@@H]2CC[C@@]3(C)O)cc1` (stereo partly specified), the inhibition at 25 µM [1] was 29.8% and the viability at 18 h [2] was 79.3%.

`CC1=C2C(C[C@@H]1OC(=O)c1ccc(C)cc1)[C@](C)(O)CC[C@H]1[C@H](C)C(=O)O[C@H]21` (stereo partly specified) gave an inhibition at 25 µM [1] of 21.2% and a viability at 18 h [2] of 100%.

Work on `CC1=C2C(C[C@@H]1OC(=O)/C=C/c1ccc(C(F)(F)F)cc1)[C@](C)(O)CC[C@H]1[C@H](C)C(=O)O[C@H]21` (stereo partly specified) yielded an IC50 [4] of 54.9 µM, an inhibition at 25 µM [1] of 75.9% and an IC50 [3] of 17.4 µM. For the same compound, the viability at 18 h [2] was 100%.

Compound `CCCc1ccc(C(=O)O[C@H]2CC3C(=C2C)[C@H]2OC(=O)[C@@H](C)[C@@H]2CC[C@@]3(C)O)cc1` (stereo partly specified) has an inhibition at 25 µM [1] of 30.6% and a viability at 18 h [2] of 73.4%.

Work on `CC1=C2C(C[C@@H]1O)[C@](C)(O)CC[C@H]1[C@H](C)C(=O)O[C@H]21` (stereo partly specified) yielded an inhibition at 25 µM [1] of 0% and a viability at 18 h [2] of 100%.

`CC1=C2C(C[C@@H]1OC(=O)c1cccnc1)[C@](C)(O)CC[C@H]1[C@H](C)C(=O)O[C@H]21` (stereo partly specified) gave an inhibition at 25 µM [1] of 6.1% and a viability at 18 h [2] of 86.9%.

With `CC(=O)O[C@]1(C)CC[C@H]2[C@H](C)C(=O)O[C@@H]2C2=C(C)C(=O)CC21` (stereo partly specified) the inhibition at 25 µM [1] was 6.9% and the viability at 18 h [2] was 100%.

For `CCCCc1ccc(C(=O)O[C@H]2CC3C(=C2C)[C@H]2OC(=O)[C@@H](C)[C@@H]2CC[C@@]3(C)O)cc1` (stereo partly specified), the inhibition at 25 µM [1] was 33.2% and the viability at 18 h [2] was 72.6%.

`CC1=C2C(C[C@@H]1OC(=O)c1ccc(C(F)(F)F)cc1)[C@](C)(O)CC[C@H]1[C@H](C)C(=O)O[C@H]21` (stereo partly specified) gave an inhibition at 25 µM [1] of 20.4% and a viability at 18 h [2] of 100%.

Compound `CC1=C2C(C[C@@H]1OC(=O)c1ccc3ccccc3c1)[C@](C)(O)CC[C@H]1[C@H](C)C(=O)O[C@H]21` (stereo partly specified) has an IC50 [4] of 89.4 µM, an inhibition at 25 µM [1] of 68.8% and an IC50 [3] of 25.7 µM. It also gave a viability at 18 h [2] of 100%.
